In US9023882B2, “5-membered nitrogen containing heterocyclic derivatives and pharmaceutical compositions comprising the same” (Kissei Pharmaceutical Co., Ltd., priority 2007, dated 2015) one finds IC50 data, which are given here for 24 molecules.

Xanthine oxidase (from bovine milk, Sigma), sequence (P80457 whole entry): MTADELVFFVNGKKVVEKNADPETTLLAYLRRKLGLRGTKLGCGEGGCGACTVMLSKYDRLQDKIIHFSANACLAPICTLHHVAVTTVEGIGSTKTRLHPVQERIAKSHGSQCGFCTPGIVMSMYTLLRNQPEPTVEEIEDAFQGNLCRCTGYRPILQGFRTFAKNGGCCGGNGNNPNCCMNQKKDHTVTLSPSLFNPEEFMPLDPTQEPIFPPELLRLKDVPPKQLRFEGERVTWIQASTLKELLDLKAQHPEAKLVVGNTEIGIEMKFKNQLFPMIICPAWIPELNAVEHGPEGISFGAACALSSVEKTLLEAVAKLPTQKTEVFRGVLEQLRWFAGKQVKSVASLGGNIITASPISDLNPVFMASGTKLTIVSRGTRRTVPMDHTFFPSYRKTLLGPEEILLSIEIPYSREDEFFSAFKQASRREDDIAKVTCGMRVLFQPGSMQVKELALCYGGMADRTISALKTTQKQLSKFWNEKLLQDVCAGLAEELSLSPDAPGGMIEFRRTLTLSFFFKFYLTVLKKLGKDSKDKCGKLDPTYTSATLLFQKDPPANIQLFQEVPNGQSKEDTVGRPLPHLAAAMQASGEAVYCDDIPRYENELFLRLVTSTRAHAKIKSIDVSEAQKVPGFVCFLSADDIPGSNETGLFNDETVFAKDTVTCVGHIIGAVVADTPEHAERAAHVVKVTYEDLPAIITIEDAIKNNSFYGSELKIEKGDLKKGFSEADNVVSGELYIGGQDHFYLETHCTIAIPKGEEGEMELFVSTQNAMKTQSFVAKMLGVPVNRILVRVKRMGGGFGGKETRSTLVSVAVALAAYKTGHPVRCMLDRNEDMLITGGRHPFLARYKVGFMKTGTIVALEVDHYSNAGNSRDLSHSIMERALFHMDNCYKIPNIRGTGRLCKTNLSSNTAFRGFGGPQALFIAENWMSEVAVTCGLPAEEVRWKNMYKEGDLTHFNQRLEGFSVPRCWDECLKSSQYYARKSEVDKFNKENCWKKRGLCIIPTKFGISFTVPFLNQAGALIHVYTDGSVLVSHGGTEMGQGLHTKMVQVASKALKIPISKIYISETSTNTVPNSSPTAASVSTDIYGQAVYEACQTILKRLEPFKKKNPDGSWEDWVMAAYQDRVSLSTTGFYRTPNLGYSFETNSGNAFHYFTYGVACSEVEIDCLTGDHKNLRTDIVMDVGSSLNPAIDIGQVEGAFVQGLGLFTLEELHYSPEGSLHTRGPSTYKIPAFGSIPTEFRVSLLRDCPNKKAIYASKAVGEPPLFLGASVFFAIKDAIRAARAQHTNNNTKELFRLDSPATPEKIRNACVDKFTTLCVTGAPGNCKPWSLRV

One test has as its target Xanthine oxidase (from bovine milk, Sigma) (Bos taurus (Bovine), UniProt P80457). Nature of the test: Xanthine oxidase inhibitory activity. Format: biochemical. Conditions: 100 μM xanthine final, absorbance at 290 nm. In a few lines:
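Bovine milk enzyme at 0.02 units/mL in PBS was mixed with compound (DMSO stock diluted in PBS) and 200 μM xanthine stock, reacting 10 min at room temperature. Uric acid formation was read as absorbance at 290 nm; IC50 was derived with no-xanthine wells as 0% and no-compound control as 100%.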
Broadly, the IC50 is the concentration needed to halve the response being measured. A low value points to higher potency. `COCCOc1ccc(-c2cn(-c3ccc(C(=O)O)c(O)c3)cc2C#N)cc1` [Example 347] displayed an IC50 of 12.2 nM.

Turning to `N#Cc1cn(-c2ccc(C(=O)O)c(O)c2)nc1-c1ccccc1` [Example 302], the IC50 is 4.9 nM.

Consider `N#Cc1cn(-c2ccc(C(=O)O)c(O)c2)cc1-c1cccc(O)c1` [Example 338], for which the IC50 was found to be 5.7 nM.

`N#Cc1cn(-c2ccc(C(=O)O)c(O)c2)cc1-c1cc2ccccc2s1` [Example 289] gave an IC50 of 22.6 nM.

As for `N#Cc1ccn(-c2ccc(C(=O)O)c(O)c2)n1` [Example 354], inhibition was half-maximal at 66.7 nM (IC50).

Turning to `N#Cc1cn(-c2ccc(C(=O)O)c(O)c2)cc1-c1ccc(Cl)s1` [Example 313], the IC50 came out at 5.2 nM.

In turn, `N#Cc1cn(-c2ccc(C(=O)O)c(O)c2)cc1-c1cccn1-c1ccccc1` [Example 304] registered an IC50 of 15.1 nM.

Consider `COc1ccc(-c2cn(-c3cc(C(=O)O)ccn3)cc2C#N)cc1` [Example 368], for which the IC50 turned out to be 13.3 nM.

For `CCCOc1ccccc1-c1cn(-c2ccc(C(=O)O)c(O)c2)cc1C#N` [Example 336], it took 36.4 nM to reach half-maximal inhibition (IC50).

Still in this test, the particulars now being: 0.02 units/mL, xanthine 200 μM, 10 minutes at room temperature, absorbance at 290 nm.
`COCCOc1cccc(-c2cn(-c3ccc(C(=O)O)cc3)cc2C#N)c1` [Example 202] gave an IC50 of 6 nM.

For `CCCCCc1cn(-c2ccc(C(=O)O)cc2)cc1C#N` [Example 245], the half-inhibitory concentration (IC50) is 2.8 nM. Against the preceding molecule, the IC50 is about 2.1-fold lower.

Regarding `COCCOc1ccccc1-c1cn(-c2ccc(C(=O)O)cc2)cc1C#N` [Example 201], half-maximal inhibition (IC50) was put at 11.1 nM. Against the preceding molecule, the IC50 is about 4-fold higher.

Regarding `N#Cc1cn(-c2ccc(C(=O)O)cc2)cc1-c1ccccc1-c1ccccc1` [Example 161], the IC50 turned out to be 31.9 nM.

For `N#Cc1cn(-c2ccc(C(=O)O)cc2)cc1C(=O)N1CCCCC1` [Example 231], the IC50 stood at 7 nM.

In turn, `Cn1cc(-c2cn(-c3ccc(C(=O)O)cc3)cc2C#N)c2ccccc21` [Example 251] returned an IC50 of 23 nM.

Regarding `N#Cc1cn(-c2ccc(C(=O)O)c(O)c2)cc1-c1ccccc1O` [Example 12, 4-[3-Cyano-4-(2-hydroxyphenyl)pyrrole-1-yl]-2-hydroxy benzoic acid], half-maximal inhibition (IC50) required 5.5 nM.

`N#Cc1cn(-c2ccc(C(=O)O)cc2)cc1-c1ccccc1OCc1ccccc1C(F)(F)F` [Example 180] gave an IC50 of 255 nM.

The molecule `N#Cc1cn(-c2ccc(C(=O)O)cc2)cc1-c1ccc(OCCO)cc1` [Example 154] returned an IC50 of 4 nM.

On to `N#Cc1cn(-c2ccc(C(=O)O)cc2)cc1-c1cccc(-c2ccccc2)c1` [Example 162], for which inhibition was half-maximal at 55.1 nM (IC50).

`COCOc1cccc(-c2cn(-c3ccc(C(=O)O)cc3)cc2C#N)c1` [Example 144] returned an IC50 of 5.8 nM.

As for `N#Cc1cn(-c2ccc(O)c(C(=O)O)c2)cc1-c1ccccc1` [Example 22, 5-(3-Cyano-4-phenylpyrrole-1-yl)-2-hydroxy-benzoic acid], half-maximal inhibition (IC50) was put at 120 nM.

`N#Cc1cn(-c2ccc(C(=O)O)cc2F)cc1-c1ccccc1` [Example 203] showed an IC50 of 6.6 nM.

As for `COCOc1ccccc1-c1cn(-c2ccc(C(=O)O)cc2)cc1C#N` [Example 143], the IC50 is 4.6 nM.

`Cc1cccc(C)c1-c1cn(-c2ccc(C(=O)O)c(O)c2)cc1C#N` [Example 272] showed an IC50 of 10.1 nM.
